From patent US9051278B2, “3,4-disubstituted 1H-pyrazole compounds and their use as cyclin dependent kinase and glycogen synthase kinase-3 modulators” (Astex Therapeutics, Ltd., priority 2003, dated 2015)

What was measured:
[1] = test system: human colon carcinoma cell line HCT 116; test: Anti-proliferative activity, Alamar Blue assay; type: cell-based; conditions: HCT 116, 72 hours, read-out: IC50 (inhibition of cell growth)
Description: The anti-proliferative activities of compounds of the invention are determined by measuring the ability of the compounds to inhibition of cell growth in a number of cell lines Inhibition of cell growth is measured using the Alamar Blue assay (Nociari, M. M, Shalev, A., Benias, P., Russo, C. Journal of Immunological Methods 1998, 213, 157-167). The method is based on the ability of viable cells to reduce resazurin to its fluorescent product resorufin. For each proliferation assay cells are plated onto 96 well plates and allowed to recover for 16 hours prior to the addition of inhibitor compounds for a further 72 hours. At the end of the incubation period 10% (v/v) Alamar Blue is added and incubated for a further 6 hours prior to determination of fluorescent product at […]. In the case of the non-proliferating cell assay cells are maintained at confluence for 96 hour prior to the addition of inhibitor compounds for a further 72 hours. The number of viable cells is determined by Alamar Blue assay as before. All cell lines are obtained from ECACC (European Collection of cell Cultures).

[2] = target: T1, GSK3-β (Homo sapiens, UniProt P49841); test: Inhibitory activity against glycogen synthase kinase-3 (Protocol A or B); type: biochemical; conditions: either Protocol A or Protocol B; read-out: IC50 (GSK3-B assays)
T1 construct: purchased Upstate Discovery
Description: The activities of the compounds of the invention as inhibitors of GSK-3 were determined using either Protocol A or Protocol B below.
The reaction is allowed to proceed for 3 hours before being stopped with an excess of ortho-phosphoric acid (5 μl at 2%). The filtration procedure is as for Activated CDK2/CyclinA assay above.
GSK3β (human) is diluted to a 10× working stock in 50 mM Tris pH 7.5, 0.1 mM EGTA, 0.1 mM sodium vanadate, 0.1% β-mercaptoethanol, 1 mg/ml BSA.

T1 sequence (P49841 whole entry): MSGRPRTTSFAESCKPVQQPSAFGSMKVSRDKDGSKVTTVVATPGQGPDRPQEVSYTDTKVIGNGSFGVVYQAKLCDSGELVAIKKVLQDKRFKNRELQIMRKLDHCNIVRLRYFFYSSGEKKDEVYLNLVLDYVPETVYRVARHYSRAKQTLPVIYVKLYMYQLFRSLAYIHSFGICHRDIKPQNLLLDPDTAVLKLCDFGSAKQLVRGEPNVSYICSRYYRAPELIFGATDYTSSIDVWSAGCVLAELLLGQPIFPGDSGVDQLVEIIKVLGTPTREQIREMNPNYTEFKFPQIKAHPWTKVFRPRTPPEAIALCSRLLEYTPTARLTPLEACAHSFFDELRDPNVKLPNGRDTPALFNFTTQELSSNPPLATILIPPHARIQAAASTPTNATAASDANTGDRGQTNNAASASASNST

| Structure (SMILES) | IC50 [1] [µM] | IC50 [2] [µM] |
| --- | --- | --- |
| CC(C)(C)C1CCC(NC(=O)c2n[nH]cc2NC(=O)c2c(F)cccc2F)CC1 (centres unmarked) [Example 77] | < 20 | < 10 |
| O=C(NC1CCNCC1)c1n[nH]cc1NC(=O)c1c(Cl)cccc1Cl [Example 150] | < 20 |  |
| COc1ccc(CNC(=O)c2n[nH]cc2NC(=O)c2c(F)cccc2F)cc1 [Example 62] | < 20 |  |
| CN1CCN(c2ccc(CNC(=O)c3n[nH]cc3NC(=O)c3c(F)cccc3F)cc2)CC1 [Example 64] | < 20 |  |
